Common to all, as to type: cell-based, murine
Experiment [1] concerns NIH 3T3 stable transfectants. Kind of experiment: Colony formation in soft agar. Particulars: for effect on colonies in soft agar: 10 ng/ml FGF1. The method, then:
Clonal populations of NIH 3T3 cells stably transfected with vector control, soluble Jagged1 (sJ1), constitutively active Notch1 (caN1), constitutively active Notch2 (caN2), dominant negative Notch 1 (dnN1), dominant negative Notch 2 (dnN2), an oncogenic mutant of FGF1 engineered with the FGF4 signal peptide sequence (hst-β (FGF4):FGF1), or constitutively active oncogenic Ras construct (caRas), were plated on 6 cm tissue culture dishes with 0.5% agar in an overlay containing DMEM (Gibco BRL) media, 10% bovine calf serum (BCS; Hyclone), and 0.33% agar at 1.5×10^3 cells/dish. As indicated, some dishes were also treated with 1 μM of the FGFR1-specific inhibitor, PD166866 (Panek et al., 1998, J. Pharmacol. Exp. Ther. 286: 569-577) and/or 10 ng/ml recombinant human FGF1 and 10 U/ml heparin (Sigma). Cells were fed with 0.5 ml of media with or without FGF1 and/or the FGFR1-specific inhibitor every 3 days as indicated. Twenty days after plating, colonies were stained with p-iodonitrotetrazolium violet (Sigma) for visualization. Quantitation of colony formation was achieved by counting all p-iodonitrotetrazolium violet-stained colonies consisting of more than 4 cells under a Zeiss Stemi SVII Apo dissecting microscope.

The subject of experiment [2] is NIH 3T3 stable transfectants. Kind of experiment: Analysis of FGF1-induced spheroid formation. The following applies: for spheroid formation: 10 ng/ml FGF1, 10 U/ml heparin. How it is done: Clonal populations of NIH 3T3 stable transfectants were resuspended and grown in media containing 10% BCS, 10% BCS containing 1 μM PD166866, 10% BCS containing 10 ng/ml recombinant human FGF1 and 10 U/ml heparin or 10% BCS containing 10 ng/ml recombinant human FGF1, 10 U/ml heparin and 1 μM PD166866 as indicated in the figure legend. Approximately 2×10^5 cells were plated per well (6-well dish) and three days after plating, phase-contrast micrographs of the cells were taken.

For experiment [3], the system named is Notch-dependent CSL1 activity in full-length Jagged1 NIH 3T3 cell transfectants. Kind of experiment: Dual Luciferase Reporter Assay of CSL1-dependent transcription. In general terms: A reporter such as luciferase makes a cellular process visible.
In experiment [4] the test system is caN1/CSL transcription in NIH 3T3 transfectants. The experiment is described as follows: Transient transfection assay of CSL-regulated transcription. Particulars: 1, 2.5, 5 or 10 ng/ml FGF1. The method, then:
NIH 3T3 cells were plated onto fibronectin-coated (10 μg/cm2) 12-well tissue culture dishes and transiently transfected at approximately 80% confluency with 500 ng of a Luciferase construct activated by 4 tandem copies of the CSL (CBF1) response element (Hsieh et al. 1996, Mol. Cell. Biol. 16: 952-959), 100 ng of the TK Renilla (Promega) construct as an internal control for transfection efficiency, and 500 ng of either vector control, sJ1 or caN1 constructs using Fugene 6 (Roche) per manufacturer's instructions. For analysis of caN1 activity in the background of NIH 3T3 stable lines, vector control, caN1, sJ1 and hst-β(FGF4):FGF1 stable transfectants were plated onto fibronectin-coated (10 μg/cm2) 12-well tissue culture dishes and transiently transfected with 500 ng of the CSL-Luciferase construct, 100 ng of the TK Renilla (Promega) construct as an internal control for transfection efficiency, and 200 ng of caN1. […] The cells were harvested 48 hours after the media change and Luciferase/Renilla activity was measured using Promega's Dual-Luciferase Reporter Assay System. The efficiency of transcription was measured and normalized in relationship to the activity of pRL-TK Renilla and the activity is reported as the ratio of Luciferase/Renilla activity. […]

Experiment [5] relates to Swiss 3T3 cells expressing a dominant-negative FGFR1 mutant. The experiment is described as follows: DNA synthesis assay, (3H)-thymidine autoradiography. Particulars: 10 ng/ml FGF1 plus 10 units/ml heparin. The method, then: A combination of (^3H)-thymidine autoradiography and immunohistochemistry was used to evaluate the levels of DNA synthesis in Swiss 3T3 cells expressing a dominant-negative FGFR1 mutant. Swiss 3T3 cells were plated at 50% confluency on glass coverslips precoated with fibronectin (10 μg/cm^2) for 24 hours. The cells were transfected with the pCS2 vector expressing a dominant-negative X. laevis FGFR1 deletion mutant lacking the FGFR1 intracellular domain (a gift from Dr. R. Friesel) using the Fugene 6 reagent (Roche). After 24 hours, the medium was changed to DMEM containing 0.25% BCS and following a 48 hour incubation in low BCS, the cells were stimulated with either 10 μg/ml of α-thrombin, 10% BCS or 10 ng/ml of recombinant FGF1 plus 10 units/ml of heparin. After stimulation for 24 hours, (^3H)-thymidine (NEN; 1 μCi/ml) was added to the medium and cells were incubated for 12 hours and fixed with 4% neutral formaldehyde. […] The percentage of (^3H)-labeled nuclei among the dnFGFR1-positive and dnFGFR1-negative cells was quantitated using an inverted Olympus microscope.
Thus, a dominant-negative (dn) FGFR1 construct was expressed in Swiss 3T3 cells and their proliferative index measured in the presence and absence of exogenous thrombin.

Experiment [6] relates to Jagged1 in NIH 3T3 stable transfectants. The experiment is described as follows: Immunoblot analysis of Jagged1 expression. The following applies: 10 ng/ml FGF1 and 10 U/ml heparin; all stable lines examined. How it is done:
Vector control, SJ1, CaN1, J1, Hstβ(FGF4):FGF1 and sJ1:caN1 stable NIH 3T3 cell transfectants were plated on tissue culture dishes in either normal growth media (DMEM (Gibco BRL) media, 10% bovine calf serum (BCS; Hyclone)) or normal growth media containing 10 ng/ml recombinant FGF1 and 10 U/ml heparin. Cells were harvested at confluency (based on status of vector control cells grown in normal growth media).
Because hst-β(FGF4):FGF1 stable transfectants and the sJ1 transfectants grown in FGF1-containing media form spheroids, all cells were harvested by scraping in the presence of the growth media dn then the cells/growth media was collected into sterile 15 ml conical tubes. Cells were pelleted by centrifugation at 800×g for 5′ at 4° C. After centrifugation, the supernatant was removed and the cell pellets were washed 3× with 1×PBS. Cells were lysed in 500 μl in 20 mM tris, pH 7.5 containing 300 mM sucrose, 60 mM KCl, 15 mM NaCl, 0.5 mM EDTA, 0.5% (v/v) Triton X-100 1 mM Phenymethyl sulfonyl flouride, 0.1% SDS, 2 μg/ml aprotinin, 10 μg/ml aprotinin, 10 μg/ml leupeptin, and 1 mM sodium orthovanadate for 15 minutes on ice. Cell lysates were pelleted and the supernatant containing soluble proteins removed.
Samples were normalized to protein concentration using the BCA Protein Assay Kit (Pierce). […]
On the technique in general: In western blotting, separated proteins are transferred to a membrane and probed.

As for `COc1cc(OC)cc(-c2cc3cnc(N)nc3nc2NC(=O)NC(C)(C)C)c1` [PD166866], the “effect on colony formation” value in experiment [1] (1 μM PD166866, caRas cells) is recorded as “no effect”. Further, the “effect on FGF1-mediated colony formation” value in experiment [1] (1 μM PD166866, sJ1, dnN1 and hst-β (FGF4):FGF1 transfectants) is given as “substantially reduced”. The “effect on small colony growth” value in experiment [1] (1 μM PD166866, sJ1 and dnN1 in the absence of FGF1) was “inhibited”. In experiment [2] (1 μM PD166866, sJ1, dnN1 and hst-β (FGF4):FGF1 stable transfectants), the “effect on FGF1-induced spheroid formation” value is “completely abolished”.

As to heparin [reference compound], in experiment [3] (heparin 5 units/ml with thrombin 10 μg/ml), the “effect of heparin on thrombin-dependent repression of CSL1-dependent transcription” value was “able to potentiate”. For the same compound, the “effect on CSL1-dependent transcription” value in experiment [3] (heparin by itself) and in experiment [3] (heparin in the presence of 10 μM TRAP) was “ineffective” throughout.

“FGF1: recombinant human fibroblast growth factor 1, added with heparin”: the “CSL1-dependent transcription, of the control level” value in experiment [3] (10 ng/ml exogenous FGF1) was “approximately 25%”. Besides, in experiment [4], the “effect on caN1/CSL transcription” value is recorded as “repressed caN1/CSL transcription in a dose-dependent fashion”. Also, in experiment [5], the “reduction by dnFGFR1 expression of the ability to induce replicating nuclei” value is given as “approximately 70%”. The “effect on colonies in soft agar” value in experiment [1] (caN1 and vector control transfectants) was “either no effect or only resulted in the formation of sparse and very small colonies”; in experiment [1] (sJ1 and dnN1 transfectants), “greatly exaggerated the size of the colonies”. Besides, the spheroid formation result is “formed multicellular, spheroid-like structures” in experiment [2] (Notch-repressed cells (sJ1, dnN1)); “did not form spheroids” in experiment [2] (vector control and caN1 transfectants). The “effect on Jagged1 expression” value in experiment [6] is given as “increased Jagged1 expression”.
